# Assay results reported in PubChem BioAssay (NCI).
#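 The compound was tested at five concentrations on cells cultured in 96-well plates, with a 48-hour exposure period. TGI is the concentration that stops growth completely.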
# Columns and labels:
# Test in all cases: growth of human tumour cells (NCI), 48 h
# 786-0 renal = system: 786-0 renal
# A498 renal = system: A498 renal
# A549 NSCLC = system: A549 NSCLC
# ACHN renal = system: ACHN renal
# BT-549 breast = system: BT-549 breast
# CAKI-1 renal = system: CAKI-1 renal
# CCRF-CEM leukemia = system: CCRF-CEM leukemia
# COLO 205 colon = system: COLO 205 colon
# DU-145 prostate = system: DU-145 prostate
# EKVX NSCLC = system: EKVX NSCLC
# HCC-2998 colon = system: HCC-2998 colon
# HCT-116 colon = system: HCT-116 colon
# HCT-15 colon = system: HCT-15 colon
# HL-60(TB) leukemia = system: HL-60(TB) leukemia
# HOP-62 NSCLC = system: HOP-62 NSCLC
# HS 578T breast = system: HS 578T breast
# HT29 colon = system: HT29 colon
# IGROV1 ovarian = system: IGROV1 ovarian
# K-562 leukemia = system: K-562 leukemia
# KM12 colon = system: KM12 colon
# LOX IMVI melanoma = system: LOX IMVI melanoma
# M14 melanoma = system: M14 melanoma
# MALME-3M melanoma = system: MALME-3M melanoma
# MCF7 breast = system: MCF7 breast
# MDA-MB-231 breast = system: MDA-MB-231 breast
# MDA-MB-435 = system: MDA-MB-435
# MDA-N = system: MDA-N
# MOLT-4 leukemia = system: MOLT-4 leukemia
# NCI-H23 lung = system: NCI-H23 lung
# NCI-H460 lung = system: NCI-H460 lung
# NCI-H522 lung = system: NCI-H522 lung
# NCI/ADR-RES ovarian = system: NCI/ADR-RES ovarian
# OVCAR-3 ovarian = system: OVCAR-3 ovarian
# OVCAR-4 ovarian = system: OVCAR-4 ovarian
# OVCAR-5 ovarian = system: OVCAR-5 ovarian
# OVCAR-8 ovarian = system: OVCAR-8 ovarian
# PC-3 prostate = system: PC-3 prostate
# RPMI-8226 leukemia = system: RPMI-8226 leukemia
# RXF 393 renal = system: RXF 393 renal
# SF-268 CNS = system: SF-268 CNS
# SF-295 CNS = system: SF-295 CNS
# SF-539 CNS = system: SF-539 CNS
# SK-MEL-2 melanoma = system: SK-MEL-2 melanoma
# SK-MEL-28 melanoma = system: SK-MEL-28 melanoma
# SK-MEL-5 melanoma = system: SK-MEL-5 melanoma
# SK-OV-3 ovarian = system: SK-OV-3 ovarian
# SN12C renal = system: SN12C renal
# SNB-19 CNS = system: SNB-19 CNS
# SR leukemia = system: SR leukemia
# SW-620 colon = system: SW-620 colon
# T-47D breast = system: T-47D breast
# TK-10 renal = system: TK-10 renal
# U251 CNS = system: U251 CNS
# UACC-257 melanoma = system: UACC-257 melanoma
# UACC-62 melanoma = system: UACC-62 melanoma
# UO-31 renal = system: UO-31 renal
# HOP-92 NSCLC = system: HOP-92 NSCLC
# NCI-H226 lung = system: NCI-H226 lung
# SNB-75 CNS = system: SNB-75 CNS
smiles,measurement,setting,value
CC[C@H](C)[C@H](NC(=O)[C@@]1(O)[C@H](O)[C@]2(CC)C=CCN3CC[C@@]4(c5cc(Br)c(OC)cc5N(C)[C@@H]14)[C@@H]32)C(=O)OC,TGI,786-0 renal,> 100 µM
same,TGI,A498 renal,> 100 µM
same,TGI,A549 NSCLC,> 100 µM
same,TGI,ACHN renal,> 100 µM
same,TGI,BT-549 breast,> 100 µM
same,TGI,CAKI-1 renal,> 100 µM
same,TGI,CCRF-CEM leukemia,67.3 µM
same,TGI,COLO 205 colon,29.2 µM
same,TGI,DU-145 prostate,> 100 µM
same,TGI,EKVX NSCLC,> 100 µM
same,TGI,HCC-2998 colon,87.7 µM
same,TGI,HCT-116 colon,> 100 µM
same,TGI,HCT-15 colon,> 100 µM
same,TGI,HL-60(TB) leukemia,70.8 µM
same,TGI,HOP-62 NSCLC,> 100 µM
same,TGI,HS 578T breast,77.1 µM
same,TGI,HT29 colon,30.5 µM
same,TGI,IGROV1 ovarian,> 100 µM
same,TGI,K-562 leukemia,> 100 µM
same,TGI,KM12 colon,> 100 µM
same,TGI,LOX IMVI melanoma,35.5 µM
same,TGI,M14 melanoma,84.5 µM
same,TGI,MALME-3M melanoma,83.7 µM
same,TGI,MCF7 breast,> 100 µM
same,TGI,MDA-MB-231 breast,46.5 µM
same,TGI,MDA-MB-435,71.3 µM
same,TGI,MDA-N,> 100 µM
same,TGI,MOLT-4 leukemia,> 100 µM
same,TGI,NCI-H23 lung,> 100 µM
same,TGI,NCI-H460 lung,> 100 µM
same,TGI,NCI-H522 lung,> 100 µM
same,TGI,NCI/ADR-RES ovarian,> 100 µM
same,TGI,OVCAR-3 ovarian,> 100 µM
same,TGI,OVCAR-4 ovarian,50 µM
same,TGI,OVCAR-5 ovarian,> 100 µM
same,TGI,OVCAR-8 ovarian,> 100 µM
same,TGI,PC-3 prostate,> 100 µM
same,TGI,RPMI-8226 leukemia,34.9 µM
same,TGI,RXF 393 renal,> 100 µM
same,TGI,SF-268 CNS,> 100 µM
same,TGI,SF-295 CNS,> 100 µM
same,TGI,SF-539 CNS,91.3 µM
same,TGI,SK-MEL-2 melanoma,> 100 µM
same,TGI,SK-MEL-28 melanoma,38.7 µM
same,TGI,SK-MEL-5 melanoma,87.4 µM
same,TGI,SK-OV-3 ovarian,> 100 µM
same,TGI,SN12C renal,> 100 µM
same,TGI,SNB-19 CNS,> 100 µM
same,TGI,SR leukemia,> 100 µM
same,TGI,SW-620 colon,> 100 µM
same,TGI,T-47D breast,> 100 µM
same,TGI,TK-10 renal,> 100 µM
same,TGI,U251 CNS,> 100 µM
same,TGI,UACC-257 melanoma,62.1 µM
same,TGI,UACC-62 melanoma,28.9 µM
same,TGI,UO-31 renal,> 100 µM
O=C(N/N=C/C=C/c1ccc([N+](=O)[O-])o1)c1ccc(C(=O)N/N=C/C=C/c2ccc([N+](=O)[O-])o2)cc1,TGI,786-0 renal,> 72.1 µM
same,TGI,A498 renal,> 100 µM
same,TGI,A549 NSCLC,> 100 µM
same,TGI,ACHN renal,> 59.1 µM
same,TGI,BT-549 breast,> 100 µM
same,TGI,CAKI-1 renal,> 90 µM
same,TGI,CCRF-CEM leukemia,> 20.3 µM
same,TGI,COLO 205 colon,> 100 µM
same,TGI,DU-145 prostate,> 73.4 µM
same,TGI,EKVX NSCLC,> 100 µM
same,TGI,HCC-2998 colon,> 28.5 µM
same,TGI,HCT-116 colon,25.7 µM
same,TGI,HCT-15 colon,> 100 µM
same,TGI,HL-60(TB) leukemia,> 65.2 µM
same,TGI,HOP-62 NSCLC,> 100 µM
same,TGI,HOP-92 NSCLC,> 100 µM
same,TGI,HS 578T breast,> 100 µM
same,TGI,HT29 colon,> 100 µM
same,TGI,IGROV1 ovarian,> 100 µM
same,TGI,K-562 leukemia,> 93.5 µM
same,TGI,KM12 colon,> 100 µM
same,TGI,LOX IMVI melanoma,> 75.8 µM
same,TGI,M14 melanoma,49.7 µM
same,TGI,MALME-3M melanoma,35.2 µM
same,TGI,MCF7 breast,> 100 µM
same,TGI,MDA-MB-231 breast,97.3 µM
same,TGI,MDA-MB-435,> 73.8 µM
same,TGI,MDA-N,> 84.8 µM
same,TGI,MOLT-4 leukemia,> 43.6 µM
same,TGI,NCI-H226 lung,> 100 µM
same,TGI,NCI-H23 lung,> 100 µM
same,TGI,NCI-H460 lung,> 88.5 µM
same,TGI,NCI-H522 lung,89 µM
same,TGI,NCI/ADR-RES ovarian,> 92.8 µM
same,TGI,OVCAR-3 ovarian,> 100 µM
same,TGI,OVCAR-4 ovarian,> 100 µM
same,TGI,OVCAR-5 ovarian,> 100 µM
same,TGI,OVCAR-8 ovarian,27.7 µM
same,TGI,PC-3 prostate,> 52.3 µM
same,TGI,RPMI-8226 leukemia,> 32.9 µM
same,TGI,RXF 393 renal,84 µM
same,TGI,SF-268 CNS,> 58.5 µM
same,TGI,SF-295 CNS,> 100 µM
same,TGI,SF-539 CNS,22.3 µM
same,TGI,SK-MEL-2 melanoma,> 100 µM
same,TGI,SK-MEL-28 melanoma,> 100 µM
same,TGI,SK-MEL-5 melanoma,99.7 µM
same,TGI,SK-OV-3 ovarian,> 100 µM
same,TGI,SN12C renal,> 54.5 µM
same,TGI,SNB-19 CNS,> 100 µM
same,TGI,SNB-75 CNS,> 100 µM
same,TGI,SR leukemia,> 73.4 µM
same,TGI,SW-620 colon,98.5 µM
same,TGI,T-47D breast,> 69.2 µM
same,TGI,TK-10 renal,> 69.7 µM
same,TGI,U251 CNS,> 52.8 µM
same,TGI,UACC-257 melanoma,> 30 µM
same,TGI,UACC-62 melanoma,> 100 µM
same,TGI,UO-31 renal,> 100 µM
